Data from the supplement of paper PMC10307832.

Key:
Experiment in all cases: relative viability (nuclei count vs DMSO), 5 days (fraction); higher = more cells survive
[1] = compound: C1/C(=C\C2=CC=CS2)/C(=O)/C(=C/C3=CC=CS3)/C1 + CC1(C)CCC(c2ccc(Cl)cc2)=C(CN2CCN(c3ccc(C(=O)NS(=O)(=O)c4ccc(N[C@H](CCN5CCOCC5)CSc5ccccc5)c(S(=O)(=O)C(F)(F)F)c4)cc3)CC2)C1 [Navitoclax] (partner 0.5 µM)
Procedure, shortened: (§1)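 Lung cancer cell lines were pin-tool dosed in 1536-well plates on the day after seeding, with either a lone drug or a fixed anchor-drug dose plus five library-drug doses (not always all listed) in √10 steps. Nuclei were counted on 4× images after 5 days. Relative viability is the ratio of treated-well to vehicle-well nuclei counts, with each value a median of duplicate plates.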

[2] = compound: C1/C(=C\C2=CC=CS2)/C(=O)/C(=C/C3=CC=CS3)/C1 + NC(=O)Nc1cc(-c2cccc(F)c2)sc1C(=O)N[C@H]1CCCNC1 [AZD7762] (partner 0.2 µM)
Procedure, shortened: as §1

TPCA-1 + Palbociclib = compound: C1=CC(=CC=C1C2=CC(=C(S2)NC(=O)N)C(=O)N)F [TPCA-1] + CC(=O)c1c(C)c2cnc(Nc3ccc(N4CCNCC4)cn3)nc2n(C2CCCC2)c1=O [Palbociclib] (partner 0.5 µM)
Procedure, shortened: as §1

[3] = compound: C[C@]12O[C@H](C[C@]1(O)CO)n1c3ccccc3c3c4c(c5c6ccccc6n2c5c31)CNC4=O [Lestaurtinib] + CC(=O)c1c(C)c2cnc(Nc3ccc(N4CCNCC4)cn3)nc2n(C2CCCC2)c1=O [Palbociclib] (partner 0.5 µM)
Procedure, shortened: as §1

| Cell Line | relative viability ([1]; first compound 0.2 µM) | relative viability ([1]; first compound 0.6325 µM) | relative viability ([1]; first compound 2 µM) | relative viability ([1]; first compound 6.325 µM) | relative viability ([1]; first compound 20 µM) | relative viability ([2]; first compound 0.2 µM) | relative viability ([2]; first compound 0.6325 µM) | relative viability ([2]; first compound 2 µM) | relative viability ([2]; first compound 6.325 µM) | relative viability ([2]; first compound 20 µM) | relative viability (TPCA-1 + Palbociclib; first compound 0.04 µM) | relative viability (TPCA-1 + Palbociclib; first compound 0.1265 µM) | relative viability (TPCA-1 + Palbociclib; first compound 0.4 µM) | relative viability (TPCA-1 + Palbociclib; first compound 1.265 µM) | relative viability (TPCA-1 + Palbociclib; first compound 4 µM) | relative viability ([3]; first compound 0.005 µM) | relative viability ([3]; first compound 0.01581 µM) | relative viability ([3]; first compound 0.05 µM) | relative viability ([3]; first compound 0.1581 µM) | relative viability ([3]; first compound 0.5 µM) |
| --- | --- | --- | --- | --- | --- | --- | --- | --- | --- | --- | --- | --- | --- | --- | --- | --- | --- | --- | --- | --- |
| NCI-H1793 | 0.376 | 0.512 | 0.503 | 0.402 | 0.519 | 0.488 | 0.482 | 0.596 | 0.328 | 0.199 | 0.358 | 0.301 | 0.303 | 0.355 | 0.213 | 0.333 | 0.36 | 0.324 | 0.335 | 0.26 |
| NCI-H3122 | 1.02 | 1.02 | 1.02 | 1.01 | 1.02 | 0.983 | 0.919 | 0.968 | 0.956 | 0.967 | 0.189 | 0.166 | 0.185 | 0.22 | 0.181 | 0.201 | 0.21 | 0.2 | 0.229 | 0.22 |
| PC-14 | 1.05 | 0.987 | 0.978 | 0.88 | 0.999 | 0.433 | 0.357 | 0.352 | 0.306 | 0.432 | 0.502 | 0.57 | 0.557 | 0.518 | 0.4 | 0.509 | 0.594 | 0.356 | 0.415 | 0.115 |
| EPLC-272H | 1.28 | 0.965 | 1.15 | 1.09 | 0.95 | 0.179 | 0.276 | 0.182 | 0.221 | 0.183 | 0.355 | 0.3 | 0.328 | 0.326 | 0.297 | 0.359 | 0.317 | 0.269 | 0.3 | 0.353 |
| A-427 | 1.03 | 1.02 | 0.982 | 0.852 | 0.92 | 0.78 | 0.836 | 0.822 | 0.724 | 0.72 | 0.555 | 0.507 | 0.545 | 0.561 | 0.553 | 0.506 | 0.554 | 0.521 | 0.444 | 0.207 |
